Assay results taken from patent publication US6087375A, “Methods of treating or preventing thromboses” (priority 1999, dated 2000).

Tested on: human platelets (thrombin-induced aggregation)
Assay: Thrombin-induced platelet aggregation assay
Format: cell-based
Description: The conjugate was prepared according to the following protocol. A 15 μM solution of RSA in PBS was reacted with 200 μM argatroban-C6 NHS ester for 1 hour at room temperature. Sham samples consist of the RSA incubated for the same length of time at RT in 2% DMSO in PBS. Each of the samples was then concentrated to a final volume of 1.5 mL using Amicon Centricon 30 filtration/concentration devices. The concentrated samples were then desalted on Pierce's 5 ML Kwiksep excellulose plastic desalting columns. The excluded volumes containing RSA or argatroban-C6-RSA were then subjected to BCA microprotein estimation and lyophilization. In addition, these samples were analyzed by LC/MS, sandwich ELISA assays (described above) to measure thrombin binding and immunoblotting.
Platelets were purified from freshly drawn human blood diluted with the anticoagulant buffer ACD (9 mls of blood to 1 mL of buffer). The blood was centrifuged for 25 min at 200×g. The platelet-rich plasma (PRP) was recovered with a plastic pipette. The PRP was centrifuged for 15 min at 3,000×g in v-shaped plastic tubes. The supernatant, called platelet-poor plasma (PPP), was then removed and saved, and the platelets were resuspended in buffer A1 (35 mM citric acid, 103 mM NaCl, 5 mM each of glucose and KCl, 2 mM CaCl2, 1 mM […], 3.5 mg/mL BSA, 0.1 μM PGE1 and 0.3 U/mL of apyrase at pH 6.5). The resuspended platelets were washed 2 times with buffer A1. After the last wash, the platelets were resuspended in buffer B1 (137 mM NaCl, 2.6 mM KCL 12 mM NaHCO3, 0.3 mM NaH2 PO4, 3 mM CaCl2, 1 mM MgCl2, 5 mM glucose, 3.5 mg/mL BSA and […] apyrase at pH 7.4) at a density of 3×10^5 /μL. The platelets were maintained at room temperature until ready for use.
Various parameters relevant to platelet aggregation were obtained on a four channel aggregometer manufactured by AFFI BIO. In brief, the reaction chambers are warmed to 37° C. and are agitated at a rate of 1,200 rpm. Light is passed through the reaction chambers, with 300 μL of buffer B1 used to set the 100% transmittance level for each chamber. From a series of standardization experiments, it was determined that 0.5 U/mL of human thrombin (Sigma) is an optimal aggregating concentration of thrombin and is used to set. the 0% transmittance for the instrument. Standard conditions for the assay involve incubating 250 μL of the platelet suspension with or without 50 μL of inhibitor diluted in buffer in the reaction chambers for 60 seconds at 37° C. The value of transmittance is now set as 0%. After this measurement, thrombin is added to the reaction chambers (20 μl) and transmittance is measured for the next 6 minutes. Samples were performed in triplicate.

With “RSA-argatroban-C6 conjugate: rabbit serum albumin covalently bound by argatroban-C6 NHS ester molecules” the “IC50 (estimated concentration which inhibits 50% of the aggregation)” value (0.5 U/mL human thrombin, 37° C., conjugate: average of 10 argatrobans/RSA used) was 4.5 to 7.5 µM and the “delay in thrombin-induced platelet aggregation” value (FIG. 11, versus sham-treated RSA) was “clearly delayed platelet aggregation”.
